{"source": "patent US9480703B2", "about": "“Method and composition of glycosaminoglycans in sickle cell and vascular disorders” (priority 2013, dated 2016)", "key": {"[1]": {"tested_on": "platelet/fibrin clot dynamics", "test": "Thrombelastography (TEG), cup with or without HUVEC coating", "details": "re-calcified citrated whole blood", "description": "Thrombelastography (TEG) was performed in either citrated whole blood after re-calcification. The blood samples were mixed with 3.8% tri-sodium citrate solution (one part citrate solution to 9 parts blood) as anticoagulant. The citrated whole blood was re-calcified by adding 0.4 ml isotonic calcium chloride solution. An aliquot of 0.36 ml of the re-calcified whole blood was transferred to the pre-warmed cup (Coated with monolayer of HUVEC or not) of the thrombelastograph. The following measurements were the standard variables of TEG: (i) Reaction time (R): the time from sample placement in the cup until onset of clotting (defined as amplitude of 1 mm). This represents the rate of initial fibrin formation; (ii) Maximum amplitude (MA): greatest amplitude on the TEG trace, wherein MA represents the absolute strength of the fibrin clot and is a direct function of the maximum dynamic strength of fibrin and platelets."}, "P-selectin": {"tested_on": "P-selectin", "test": "P-selectin levels in plasma of transgenic sickle cell mice", "assay_type": "in vivo", "details": "daily subcutaneous treatment for 7 days, LMWH 5 mg/kg, SNACH (NACH) 20 mg/kg", "description": "(§1) Transgenic SCD model mice (stock #013071) of aged-matched female were obtained from The Jackson Laboratory (Bar Harbor, Me.) in addition to wild mice as controls. Genetically, transgenic mice were designed with the human hemoglobin gamma (^Ay) gene and the human sickle hemoglobin beta (β^S) gene replacing the endogenous mouse major and minor β-globin.\n(§2) Each category of mice (wild or SCD) was divided into three groups. Basal blood samples were taken by retro orbital venipuncture under anesthesia with citrated micro-hematocrit tubes, before the treatment administration. The three groups in each category were treated subcutaneously with LMWH (5 mg/kg), SNACH (20 mg/kg), and PSI (10 mg/kg). Compounds were administered daily for 7 days, and follow up blood samples were drawn daily after 1 hour of treatment administration. Immediately after collection, blood was centrifuged at 800×g for 5 minutes and plasma was collected and stored at −80° C."}, "aPTT in dosed mice": {"test": "aPTT in dosed mice", "assay_type": "in vivo", "details": "subcutaneous, SNACH 0.1-40 mg/Kg, tinzaparin 0.1-5.0 mg/Kg"}, "[2]": {"test": "Mortality of treated SCD mice", "assay_type": "in vivo", "details": "LMWH 5 mg/kg daily, % of the group's mice", "description": "as §2"}, "[3]": {"tested_on": "endogenous pathway of coagulation", "test": "aPTT in citrated plasma", "details": "SNACH 1-10 uM", "description": "To 0.1 ml of citrated plasma 0.1 ml of human placenta lipid is added and the mixture is incubated for 2 min at 37° C. The coagulation process is initiated by the addition of 0.1 ml 25 mM calcium chloride and the time to clot formation is determined. The aPTT measures effects on the endogenous pathway of coagulation."}, "NFkB": {"tested_on": "NFkB", "test": "NF-KB luciferase reporter assay", "assay_type": "cell-based", "details": "NF-KB Luciferase Reporter Hela Stable cells, 1 μL, 10 μL and 100 μL, two hours", "description": "The Luciferase Assay System was purchased from Promega (Madison, Wis., USA). NF-KB Luciferase Reporter Hela Stable cells were seeded at 10^4 cells/well in 96-well plate and incubated for 24 hours. Then, growth media was removed. Next, SNACH, tinzaparin or Poly-Arginine NPs were added at concentrations of 1 μL, 10 μL and 100 μL in triplicate and incubated at 36° C. for two hours. After two hours, cells were washed with PBS. Lysis buffer was prepared following a generic protocol. 0.5 mL of lysis buffer was mixed with 2 mL of PBS. Next, the lysis buffer's solution was added to each well. Afterward, the 96-well plate was rocked several times using a shaker. Cells and liquid were collected for centrifugation at 1200×g for 5 minutes at 4° C. The supernatant was removed and stored at −80° C. One week later, the 96-well plate was placed in the luminometer containing 20 μL of lysis buffer and 100 μL of luciferase assay reagent/well. The light was measured for a period of 10 seconds with a delay time of 2 seconds."}, "factor Xa": {"tested_on": "factor Xa", "test": "Anti-Xa in dosed mice", "assay_type": "in vivo", "details": "subcutaneous, SNACH 0.1-40 mg/Kg, tinzaparin 0.1-5.0 mg/Kg"}, "ICAM-1": {"tested_on": "ICAM-1", "test": "ICAM-1 levels in plasma of transgenic sickle cell mice", "assay_type": "in vivo", "details": "daily subcutaneous treatment for 7 days, LMWH 5 mg/kg, SNACH (NACH) 20 mg/kg, PSI-14 10 mg/kg", "description": "as §1, §2\nLevels of adhesion biomarker ICAM-1 were measured in mice plasma using the Bio-Plex 200 systems. Assay kit (171-304080M) was obtained from Bio-Rad (Hercules, Calif.) and the experiment was conducted following the provided instructions. The assay principle is based on the concept of sandwich ELISA where magnetic beads are covalently bound to the capture antibodies that react to the targeted biomarker. […]"}, "Bleeding time in mice": {"test": "Bleeding time in mice", "assay_type": "in vivo"}, "[4]": {"tested_on": "adhesion of sickle RBCs to endothelial cells (HUVECs)", "test": "Static adhesion assay of PKH67-labeled sickle RBCs on TNF-α-treated HUVECs", "assay_type": "cell-based, human", "details": "HUVECs treated with TNF-α 10 ng/ml; PSI 10 μg/ml, LMWH & SNACH 40 μg/ml", "description": "Using gelatin-coated culture flasks, HUVEC were cultured in EGM complete media supplemented with 2 ml bovine brain extract (BBE), and passaged when 80% confluent using trypsin/EDTA solution according to the manufacturers' instructions. Cells from passages 2 to 6 were used for adhesion assay experiments. Cells were sub-cultured in a 96-well plate pre-coated with collagen with a number of 20,000 cells per well, and were left for 24 hours at 37° C. in a CO2 (5%) incubator to form a confluent monolayer.\nNormal and sickle blood samples were collected in EDTA tubes from the antecubital vein of healthy volunteers and homozygous sickle cell patients, respectively. […] Packed RBCs were washed once with PBS, and counted using a CBC analyzer. […]\nAfter HUVECs formed a confluent monolayer in the plate's wells, the experiment was designed to include five groups in […]: medium only (negative control), TNF-α only (positive control), or TNF-α with the treatment compounds: LMWH, SNACH, and PSI. […] Non-adherent RBCs were removed with PBS wash, and then 150 μl of complete medium were added for plate reading.\nIn order to quantitate endothelial-adherent RBCs by the fluorescence plate reader, serial two-fold dilutions of PKH67-labeled RBC samples were prepared from 2×10^6 to 0.16×10^6 RBCs/well. […] fluorescence was detectable with as few as 10^4 RBCs. […]"}}, "data": [{"substance": "tinzaparin [LMWH]", "values": [{"measurement": "platelet/fibrin clot dynamics (TEG)", "setting": "[1]; absence of endothelial cell coating of cup", "result": "suppression of platelet/fibrin clot dynamics"}, {"measurement": "platelet/fibrin clot dynamics (TEG)", "setting": "[1]; presence of endothelial cell (HUVEC) coating of cup", "result": "suppression of platelet/fibrin clot dynamics"}, {"measurement": "decrease of P-selectin levels in plasma", "setting": "P-selectin", "result": "~15", "unit": "%"}, {"measurement": "aPTT", "setting": "aPTT in dosed mice", "result": "increase in aPTT"}, {"measurement": "mortality rate (bleeding complications)", "setting": "[2]", "result": 75, "unit": "%"}, {"measurement": "effect on aPTT", "setting": "[3]", "result": "concentration dependent increase in aPTT"}, {"measurement": "NFkB activation", "setting": "NFkB", "result": "significant concentration-dependent suppression of NFkB activation"}, {"measurement": "anti-Xa", "setting": "factor Xa", "result": "inhibition of factor Xa"}, {"measurement": "ICAM-1 levels in plasma at multiple time points", "setting": "ICAM-1", "result": "showed a decrease only on the first and third days of treatment"}, {"measurement": "bleeding time", "setting": "Bleeding time in mice; subcutaneous, SNACH 0.1-40 mg/Kg, tinzaparin 0.1-5.0 mg/Kg", "result": "maximal increase in bleeding time"}, {"measurement": "finding at site of injection", "setting": "Bleeding time in mice; tinzaparin 0.1-5.0 mg/Kg subcutaneously", "result": "browsing at site of injection"}, {"measurement": "adhesion of sickle RBCs to the endothelial layer compared to TNF-α only (positive control)", "setting": "[4]", "result": "did not show a decrease in the adhesion that could be considered statistically significant"}]}]}
